The values below come from PMC6689975, “Novel Cell Wall Antifungals Reveal a Special Synergistic Activity in pbr1 Mutants Resistant to the Glucan Synthesis Antifungals Papulacandins and Echinocandins” (Frontiers in Microbiology, 2019).

In brackets after ≈: the same amount, converted by molar mass. Where two headings read alike, the source gives them in different places.

What all share (assay): microbe, parasite or virus in culture
Assay [1] has as its system Candida albicans C. a.^f (Tables 5, 6). On the set-up: species or system yeast; micro tube dilution MIC in YES (± 1.2 M sorbitol), complete growth inhibition by turbidity. The conditions noted are these: 48 h. As for the experimental part:
(§1) Standard YEPD (Yeast Extract, Peptone, Dextrose) ([Sherman, 1990]), YEPD+S (YEPD with 1.2M sorbitol), YES (Yeast Extract, Dextrose and Supplements of Adenine, Histidine, Leucine, Uracil and Lysine) ([Alfa et al., 1993]) and YES+S (YES with 1.2 M sorbitol) ([Ribas et al., 1991]; [Ishiguro et al., 1997]), media were used for determination of MIC values of the tested compounds. A stock solution of 10 mg/ml of each tested compounds was prepared in DMSO and serial dilutions in DMSO were prepared. The final concentration of DMSO was 2% in the YEPD medium. […] The serial dilutions of compounds were dispensed into test tubes with 1 ml of YEPD or YEPD+S to make final concentrations of 200, 100, 50, 25, 12.5, 6.26, 3.125, 1.6, 0.8 and 0.4 μg/ml. The tested yeast strains were previously grown in YEPD, YEPD+S, YES or YES+S agar plates at 30°C for 48 h. Micro-culture assays of large numbers of samples were analyzed as described) ([Martins et al., 2011]). Essentially early log-phase cells were grown in YEPD, YEPD+S, YES or YES+S (1.2 M sorbitol) medium at 30°C, and diluted to cell density of 4 X 10^6 cells/ml in YEPD, YEPD+S, YES or YES+S medium and aliquots of 100 μl were dispensed into each small test tube (3 ml test tube size). Then, another 100 μl of YEPD, YEPD+S, YES or YES+S with the corresponding dilution of each compound at 2X concentration (4% DMSO) was added. The final volume was 200 μl, with the cells diluted to of 2 X 10^6 cells/ml and each compound diluted to 1X final concentration, containing increasing concentrations of antifungal (0, 1, 2, 5, 10, 20, 50, 100 and 200 μg/ml) or an equivalent volume of solvent (2% DMSO). The cells were grown at 30°C in an orbital roller and turbidity was analyzed after 24 and 48 h of incubation. The MIC was determined as the minimal concentration of tested compound that produced complete cell growth inhibition and kept the medium clear. The MIC values were calculated from at least three independent experiments.

Assay [2] concerns T1, Schizosaccharomyces pombe S. p.^a (wild-type 972 h-).
T1 construct: 972 h-
Details: species or system yeast; micro tube dilution MIC in YES (± 1.2 M sorbitol), complete growth inhibition by turbidity. The following applies: 48 h. As to the method: as §1

Assay [3] concerns T2, Saccharomyces cerevisiae S. c.^d (wild-type CVX12-3A).
T2 construct: CVX12-3A
On the set-up: species or system yeast; micro tube dilution MIC in YES (± 1.2 M sorbitol), complete growth inhibition by turbidity. The following applies: 48 h. As for the experimental part:
as §1

The subject of assay [4] is Candida albicans C. a.^f (Table 4). Details: species or system yeast; tube dilution MIC in YEPD (± 1.2 M sorbitol), complete growth inhibition by turbidity. The following applies: 48 h, YEPD + 1.2 M sorbitol. As to the method:
as §1, with “h. For inoculation of YEPD or YEPD+S macro test tubes a suspension of tested fungus was produced with 10^5 cfu/ml (cfu - colony forming unit). 10 μl of suspension was used for inoculation of each tube. After 48 h incubation at 30°C the tubes were checked. The MIC value is the lowest concentration of the tested compound that could inhibit the fungal growth and the medium remained clear. From each tube 10 μl culture was plated on YEPD agar medium to check the contamination. The MIC tests were carried out in three parallels.” for “h.”

Assay [5] deals with Candida albicans C. a.^g (Table 4). On the set-up: species or system yeast; tube dilution MIC in YEPD (± 1.2 M sorbitol), complete growth inhibition by turbidity. The conditions noted are these: 48 h, YEPD + 1.2 M sorbitol. As for the experimental part: as §1, with “h. For inoculation of YEPD or YEPD+S macro test tubes a suspension of tested fungus was produced with 10^5 cfu/ml (cfu - colony forming unit). 10 μl of suspension was used for inoculation of each tube. After 48 h incubation at 30°C the tubes were checked. The MIC value is the lowest concentration of the tested compound that could inhibit the fungal growth and the medium remained clear. From each tube 10 μl culture was plated on YEPD agar medium to check the contamination. The MIC tests were carried out in three parallels.” for “h.”

For assay [6], the system named is T1, Schizosaccharomyces pombe S. p.^a (wild-type 972 h-). On the set-up: species or system yeast; tube dilution MIC in YEPD (± 1.2 M sorbitol), complete growth inhibition by turbidity. The conditions noted are these: 48 h, YEPD + 1.2 M sorbitol. As to the method: as §1, with “h. For inoculation of YEPD or YEPD+S macro test tubes a suspension of tested fungus was produced with 10^5 cfu/ml (cfu - colony forming unit). 10 μl of suspension was used for inoculation of each tube. After 48 h incubation at 30°C the tubes were checked. The MIC value is the lowest concentration of the tested compound that could inhibit the fungal growth and the medium remained clear. From each tube 10 μl culture was plated on YEPD agar medium to check the contamination. The MIC tests were carried out in three parallels.” for “h.”

Assay [7] has as its system T2, Saccharomyces cerevisiae S. c.^d (wild-type CVX12-3A). Details: species or system yeast; tube dilution MIC in YEPD (± 1.2 M sorbitol), complete growth inhibition by turbidity. The following applies: 48 h, YEPD + 1.2 M sorbitol. As to the method: as §1, with “h. For inoculation of YEPD or YEPD+S macro test tubes a suspension of tested fungus was produced with 10^5 cfu/ml (cfu - colony forming unit). 10 μl of suspension was used for inoculation of each tube. After 48 h incubation at 30°C the tubes were checked. The MIC value is the lowest concentration of the tested compound that could inhibit the fungal growth and the medium remained clear. From each tube 10 μl culture was plated on YEPD agar medium to check the contamination. The MIC tests were carried out in three parallels.” for “h.”

For `O=c1oc2ccc3ccccc3c2cc1-c1ccccc1CO` [compound 12], the MIC was greater than 200 µg/mL in assay [1] (YES + 1.2 M sorbitol); greater than 200 µg/mL in assay [2] (YES + 1.2 M sorbitol); greater than 200 µg/mL in assay [3] (YES + 1.2 M sorbitol); 100 µg/mL in assay [4]; 200 µg/mL in assay [5]; 50 µg/mL in assay [6]. Also, the MIC in assay [7] worked out at 50 µg/mL.

`CC[C@H](C)C[C@H](C)CCCCCCCCC(=O)N[C@H]1C[C@@H](O)[C@@H](NCCN)NC(=O)[C@@H]2[C@@H](O)CCN2C(=O)[C@H]([C@H](O)CCN)NC(=O)[C@H]([C@H](O)[C@@H](O)c2ccc(O)cc2)NC(=O)[C@@H]2C[C@@H](O)CN2C(=O)[C@H]([C@@H](C)O)NC1=O` [caspofungin]: the MIC turned out to be 50 µg/mL (≈ 45.7 µM) in assay [1] (read-out: MIC), 10 µg/mL (≈ 9.15 µM) in assay [2] (read-out: MIC) and 0.5 µg/mL (≈ 0.457 µM) in assay [3] (read-out: MIC).

For the molecule `O=c1oc2ccccc2cc1-c1ccccc1CO` [compound 15], the MIC in assay [1] (YES + 1.2 M sorbitol) is greater than 200 µg/mL; in assay [2] (YES + 1.2 M sorbitol), greater than 200 µg/mL; in assay [3] (YES + 1.2 M sorbitol), greater than 200 µg/mL; in assay [4] it was 25 µg/mL; in assay [5] it was greater than 200 µg/mL; in assay [6], 200 µg/mL. The MIC in assay [7] turned out to be 100 µg/mL.
